# Where two headings read alike, the source gives them in different places.
# Tests used:
# [1] = hepatocyte intrinsic clearance; assay type: in vitro ADME; conditions: male, Han-Wister, rat hepatocytes
# From the text: (§1) Supplement srep11827-s1.doc, table 4 | column: Han-Wister rat (male)
# [2] = target: hERG (Homo sapiens, UniProt Q12809); assay: In vitro ion channel function
# [3] = tested on: S. pneumoniae ARC2205 (ERQR); assay: MIC (CLSI broth microdilution); assay type: cell-based
# [4] = tested on: S. pneumoniae ATCC49619; assay: MIC (CLSI broth microdilution); assay type: cell-based
# [5] = target: S. aureus Topo IV (Staphylococcus aureus, UniProt P0C1S7+P0C1U9); assay: S. aureus Topo IV cleaved complex ligation assay; assay type: biochemical; conditions: free Mg2+ 0.06 μM to 8 mM
# [6] = Single dose pharmacokinetics, monkey; assay type: in vivo; conditions: plasma, Cynomologus monkey (male)
# Experimental: AZD0914 was analyzed in mouse, rat, dog, monkey plasma using a qualified method which was later validated for human plasma analysis. The validated human method is described below and is representative of the approach taken in other species. AZD0914 was determined in human plasma prepared with K2EDTA as an anticoagulant. AZD0914 and an internal standard (^13C2, ^15N2 AZD0914) were extracted from plasma with tert- butyl methyl ether. After evaporating to dryness under a stream of nitrogen, the residue was reconstituted and quantitated by reverse phase HPLC-MS/MS against a standard curve from 1.00 to 5000 ng/ml. Separation was achieved using a gradient which went from 55% to 85% methanol:acetonitrile (1:1) containing 0.2% formic acid as mobile phase B and 0.2% formic acid in water as mobile phase A at a flow rate of 0.60 ml/min through a Phenomonex Gemini C18 column (50 x 2.0 mm column, […]) heated using a Shimadzu CTO-20AC set to 40 °C. AZD0914 was detected in multiple reaction monitoring (MRM) mode by positive ion electrospray ionization using a Sciex API5500 (Toronto, Canada) mass spectrometer. The ion spray voltage was set to 5500 V and turboionspray temperature was 650 °C. AZD0914 was quantitated using the MRM transition 488.2 → 348.2 using a collision energy of 29 eV. The internal standard, (^13C2, ^15N2 AZD0914), was monitored using identical conditions except for the MRM transition of 492.2 → 348.2.
# [7] = tested on: Ureaplasma spp.; parameters: method as in ref 3 (supplement); conditions: 21 tested; ref 3 (supplement); cited from earlier work
# [8] = physchem
# [9] = tested on: DNA gyrase or Topo IV; assay: Malachite Green based ATPase assays; assay type: biochemical
# [10] = tested on: Moraxella catarrhalis; parameters: method as in ref 2 (supplement); conditions: 145 tested; ref 2 (supplement); cited from earlier work
# [11] = tested on: resistant isolates of S. aureus, S. pneumoniae and N. gonorrhoeae; assay type: cell-based
# [12] = Quantitative whole-body autoradiography, tissue distribution of radioactivity; assay type: in vivo, male pigmented Lister Hood rat; conditions: rat plasma after iv infusion of 14C label
# Experimental: Quantitative whole-body autoradiography. The distribution of radioactivity in male, pigmented Lister Hood rat tissues was obtained after a single intravenous infusion over 15 minutes of ^14C-AZD0914 at 25 mg/kg (51 μmol/kg, 5 MBq/kg) using quantitative whole-body autoradiography with phosphor-imaging technology. The potential of this compound and/or its metabolites to bind to melanin-containing tissues and/or to potentially bind covalently to tissues was also evaluated. The rats were sacrificed at 5 minutes, 1 hour, 4 hours, 24 hours, 48 hours, 7 days and 21 days after the end of infusion with enflurane (Efrane®, Abbott Laboratories, USA), and frozen in acetone, cooled to -70 °C with solid CO2. The 7- and 21- day animals could not be quantified as no trace of radioactivity was observed. After removal of limbs and tail, the carcass was embedded, with left lateral side uppermost, in a 2.5% (w/v) aqueous solution of caramellosum natricum and frozen for at least 10 minutes. The animal blocks were stored at -20 °C until sectioning. Sagittal whole-body sections (30 μm) were obtained to include organs and tissues of interest. At sectioning each block was mounted in a Leica CM3600 Cryomacrotome (Leica Microsystems GmbH, Germany) maintained at approximately -20 °C. All sections were dried at -20 °C for at least 1 day prior to exposure on phosphor-imaging plates. Together with two sets of calibration standards, the sections were placed on phosphor-imaging plates, which had been pre-covered with a thin plastic film. The imaging plates were exposed for 1 to 3 days at +4 to +12 °C, enclosed in light tight cassettes in a lead shielding box to protect from environmental radiation. Following exposure, the imaging plates were scanned at a pixel size of 50 μm using FLA-7000 (FujiFilm Sverige AB, Sweden). The tissues and organs of interest were quantified using AIDA 3.5 (Raytest, Germany). The quantification limit was defined as twice the background value of the imaging plate and varied between the plates from 0.23 to 0.33 nmol/g. The various tissues and organs were identified either on the autoradiograms or on the corresponding tissue sections.
# [13] = plasma protein binding, rat; assay type: in vitro ADME; conditions: in vitro at 1-50 µM
# From the text: as §1
# [14] = hepatocyte intrinsic clearance; assay type: in vitro ADME; conditions: male, Beagle, dog hepatocytes
# From the text: Supplement srep11827-s1.doc, table 4 | column: Beagle dog (male)
# [15] = hepatocyte intrinsic clearance; assay type: in vitro ADME; conditions: female, CD-1, mouse hepatocytes
# From the text: Supplement srep11827-s1.doc, table 4 | column: CD-1 mouse (female)
# [16] = tested on: Streptococcus agalactiae; parameters: method as in ref 2 (supplement); conditions: 441 tested; ref 2 (supplement); cited from earlier work
# [17] = hepatocyte intrinsic clearance; conditions: human, hepatocytes
# [18] = tested on: Streptococcus pneumoniae; parameters: method as in ref 2 (supplement); conditions: 2324 tested; ref 2 (supplement); cited from earlier work
structure (smiles),measurement,setting,value
C[C@@H]1CN2c3c(cc4c(N5C(=O)OC[C@@H]5C)noc4c3F)CC3(C(=O)NC(=O)NC3=O)[C@H]2[C@H](C)O1 [ETX0914],hepatocyte CLint at 1 µM,[1],10 µL/min/1e6 cells
same,IC50,"[2]; hERG IC50, K^+ rectifying current/QT interval",316 µM
same,margin of ion channel IC50 relative to Cmax,"[2]; ion channels including hERG, Cmax at highest 4000 mg Phase 1 dose",greater than 10 fold
same,MIC: S. pneumoniae ARC2205 (ERQR),[3],0.125 µg/mL
same,MIC: S. pneumoniae ATCC49619,[4],0.125 µg/mL
same,re-ligation of inhibitor-induced cleaved DNA on removal of Mg2+,[5],No ligation is observed
same,clearance,"[6]; IV 2.5 mg/kg, read-out: Clp (IV)",12 mL/min/kg
same,half-life,"[6]; IV 2.5 mg/kg, read-out: T1/2 (IV) (converted)",96 min
same,Vd,"[6]; IV 2.5 mg/kg, read-out: Vss (IV)",1.3 L/kg
same,bioavailability,[6]; IV 2.5 / PO 5 mg/kg,58%
same,Cmax,[6]; PO 5 mg/kg,6.5 µM
same,half-life,"[6]; PO 5 mg/kg, read-out: T1/2 (PO) (converted)",96 min
same,MIC90,[7],1.0^3 µg/ml
same,MIC Range,[7],0.125 to 2 µg/mL
same,solubility,[8],390 µM
same,inhibition of ATPase activity,[9],lack of inhibition of ATPase activity
same,MIC90,[10],0.25^2 µg/ml
same,MIC Range,[10],0.015 to 0.5 µg/mL
same,susceptibility of GyrB\ParE mutants with reduced novobiocin susceptibility,"[11]; S. aureus ARC3445, S. pneumoniae ARC2800",fully susceptible
same,cross-resistance of NBTI resistant S. aureus mutant ARC2796,[11]; derived from ARC516,not cross-resistant
same,share of circulating radioactivity in plasma accounted for by parent,[12],~ 90%
same,PPB (%free),[13],19.1±1.1 %free
same,hepatocyte CLint at 1 µM,[14],3.8 µL/min/1e6 cells
same,hepatocyte CLint at 1 µM,[15],7 µL/min/1e6 cells
same,MIC90,[16],0.25^2 µg/ml
same,MIC Range,[16],0.03 to 0.5 µg/mL
same,hepatocyte CLint,[17],1 µL/min/1e6 cells
same,MIC90,[18],0.25^2 µg/ml
same,MIC Range,[18],≤ 0.015 to 0.5 µg/mL

# From paper PMC4501059, “Responding to the challenge of untreatable gonorrhea: ETX0914, a first-in-class agent with a distinct mechanism-of-action against bacterial Type II topoisomerases” (Scientific Reports, 2015)
